How the values were obtained:
Assay in all cases: relative viability (nuclei count vs DMSO), 5 days (fraction); higher = more cells survive
[1] = compound: CC(C)C[C@H](NC(=O)[C@H](CCc1ccccc1)NC(=O)CN1CCOCC1)C(=O)N[C@@H](Cc1ccccc1)C(=O)N[C@@H](CC(C)C)C(=O)[C@@]1(C)CO1 [Carfilzomib] + CC(=O)c1c(C)c2cnc(Nc3ccc(N4CCNCC4)cn3)nc2n(C2CCCC2)c1=O [Palbociclib] (partner 0.5 µM)
Method in brief: (§1)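 Relative viability is defined as nuclei in treated wells over nuclei in vehicle wells. Duplicate plates were run and medians reported. Lung cancer cell lines in 1536-well plates were dosed by pin tool one day after seeding, with one drug or with a fixed anchor-drug dose plus five library-drug doses (not always all listed) in √10 steps, and nuclei were counted after 5 days.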

Crizotinib + Alpelisib = compound: C[C@@H](Oc1cc(-c2cnn(C3CCNCC3)c2)cnc1N)c1c(Cl)ccc(F)c1Cl [Crizotinib] + Cc1nc(NC(=O)N2CCC[C@H]2C(N)=O)sc1-c1ccnc(C(C)(C)C(F)(F)F)c1 [Alpelisib] (partner 2 µM)
Method in brief: as §1

Crizotinib + AZD7762 = compound: C[C@@H](Oc1cc(-c2cnn(C3CCNCC3)c2)cnc1N)c1c(Cl)ccc(F)c1Cl [Crizotinib] + NC(=O)Nc1cc(-c2cccc(F)c2)sc1C(=O)N[C@H]1CCCNC1 [AZD7762] (partner 0.2 µM)
Method in brief: as §1

Carfilzomib + Luminespib = compound: CC(C)C[C@H](NC(=O)[C@H](CCc1ccccc1)NC(=O)CN1CCOCC1)C(=O)N[C@@H](Cc1ccccc1)C(=O)N[C@@H](CC(C)C)C(=O)[C@@]1(C)CO1 [Carfilzomib] + CCNC(=O)c1noc(-c2cc(C(C)C)c(O)cc2O)c1-c1ccc(CN2CCOCC2)cc1 [Luminespib] (partner 0.01 µM)
Method in brief: as §1

Cell Line	relative viability ([1]; first compound 0.001 µM)	relative viability ([1]; first compound 0.003162 µM)	relative viability ([1]; first compound 0.01 µM)	relative viability ([1]; first compound 0.03162 µM)	relative viability ([1]; first compound 0.1 µM)	relative viability (Crizotinib + Alpelisib; first compound 0.01 µM)	relative viability (Crizotinib + Alpelisib; first compound 0.03162 µM)	relative viability (Crizotinib + Alpelisib; first compound 0.1 µM)	relative viability (Crizotinib + Alpelisib; first compound 0.3162 µM)	relative viability (Crizotinib + Alpelisib; first compound 1 µM)	relative viability (Crizotinib + AZD7762; first compound 0.01 µM)	relative viability (Crizotinib + AZD7762; first compound 0.03162 µM)	relative viability (Crizotinib + AZD7762; first compound 0.1 µM)	relative viability (Crizotinib + AZD7762; first compound 0.3162 µM)	relative viability (Crizotinib + AZD7762; first compound 1 µM)	relative viability (Carfilzomib + Luminespib; first compound 0.001 µM)	relative viability (Carfilzomib + Luminespib; first compound 0.003162 µM)	relative viability (Carfilzomib + Luminespib; first compound 0.01 µM)	relative viability (Carfilzomib + Luminespib; first compound 0.03162 µM)	relative viability (Carfilzomib + Luminespib; first compound 0.1 µM)
LOU-NH91	0.492	0.543	0.514	0.363	0.314	0.648	0.682	0.72	0.707	0.742	0.778	0.82	0.796	0.719	0.716	0.344	0.475	0.344	0.287	0.289
NCI-H1755	0.465	0.458	0.461	0.408	0.293	0.899	0.844	0.938	0.902	0.959	0.407	0.423	0.539	0.411	0.455	0.54	0.367	0.481	0.288	0.453
NCI-H647	0.458	0.45	0.306	0.0189	0.0185	1.08	1.16	1.02	0.933	1.01	0.444	0.626	0.403	0.394	0.595	0.203	0.143	0.2	0.0957	0.0461
A549						0.657	0.804	0.738	0.677	0.793										
LCLC-103H	0.415	0.47	0.465	0.494	0.416	0.917	0.98	1.05	1.13	1.01	0.798	0.78	0.877	0.839	0.804	0.849	0.975	0.943	1.04	0.176
NCI-H1437	0.318	0.329	0.415	0.296	0.213	0.869	0.973	0.925	0.938	0.907	1.03	1.13	1.09	1.13	1.09	1.08	1.24	1.11	0.94	0.249
NCI-H2170	0.38	0.437	0.456	0.339	0.127	0.804	0.779	0.74	0.709	0.904	0.761	0.894	0.835	0.852	0.858	0.635	0.666	0.612	0.579	0.311
HCC-15	0.706	0.688	0.751	0.61	0.206	0.846	0.938	0.906	0.848	0.956	1.07	0.721	1.2		1.14	0.306	0.344	0.299	0.268	0.0676
NCI-H1648	0.236	0.23	0.227	0.288	0.255							0.513	0.684	0.467	0.723					

Reference: the supplement of paper PMC10307832
